Data reported in patent publication US10294272B2, “Peptides with antagonistic activities against natural CXCR4” (Pharis Biotec GmbH, priority 2013, dated 2019).
No end group written: not given here.

Key:
[1] = tested on: wild-type (wt) HIV-1 NL4-3 in PBMCs; experiment: PBMC infection assay; assay type: cell-based; details: concentrations ≥4 μg/ml
Procedure: Peripheral blood mononuclear cells were isolated from Buffy coat derived from the DRK-Blutspendedienst Baden-Württemberg-Hessen using Ficoll density centrifugation. 1×10^6 PBMC per ml were stimulated with 1 μg/ml phytohemagglutinine (PHA, Oxoid, #3085280) and 10 ng/ml Interleukin 2 (IL-2, Strathmann, #9511192) for three days. Thereafter, cells were pelleted and resuspended in IL-2 containing medium. 2×10^5 PBMC were seeded in 96 well F-bottom microtiter plates, peptides were added and cells were infected with […] p24 antigen of X4 or R5 tropic viruses. Supernatants containing progeny virus were taken at every 2-3 days post infection. Virus production was measured by p24 antigen ELISA (NIH AIDS reagent program). The mean p24 antigen values (ng/ml) were derived from triplicate infections±standard deviation.

[2] = tested on: TZM-bl cells or prestimulated PBMCs
Procedure: To assess cytotoxic effects TZM-bl cells or prestimulated PBMCs were incubated with increasing concentrations of peptides. Cell viability was determined using the CellTiter-Glo Luminescent Cell Viability Assay (PROMEGA, G7571) as recommended by the manufacturer. Values were derived from triplicate measurements. Vitality rates were calculated relative to ATP levels in PBS (no peptide) containing cells (100%). Data were recorded using a luminometer 10 minutes after adding reagent.

[3] = tested on: X4 HIV-2 strains; experiment: TZM-bl infection assay, X4 HIV-2; assay type: cell-based; details: effects relatively modest
Procedure: HIV-1, HIV-2 and SIV molecular clones differing in coreceptor tropism were generated by transient transfection of 293T cells with proviral DNA by the calcium phosphate method (CalPhos™ Mammalian Transfection Kit, Clon-tech). After overnight incubation, the transfection mixture was replaced by DMEM medium supplemented with 10% FCS, and virus stocks were harvested 48 hrs post-transfection. Subsequently, the culture supernatant was centrifuged for 5 min at 3000 rpm to remove cell debris. The resulting virus stock was quantified by p24 (HIV) or p27 (SIV) antigen ELISA. Virus stocks were either used immediately or stored in aliquots at −80° C.
TZM-bl reporter cells containing the LacZ reporter gene under the control of the HIV-1 promoter were seeded in 96-well F-bottom microtiter plates (Greiner Bio-One). On the following day, the cells were preincubated with various dilutions of the peptide of SEQ ID NO 16 or its derivatives for 1 hour and subsequently infected with HIV-1, HIV-2, and SIV. Infection rates were determined after 2 days using the one-step Tropix Gal-Screen Kit, as recommended by the manufacturer.

[4] = tested on: Jurkat T cells; experiment: CXCL12-induced migration of Jurkat T cells; assay type: cell-based
Procedure: Migration of Jurkat cells (ATCC) was analyzed using 6.5 mm diameter chambers with 5 μm pore filters (Transwell, 24-well cell culture, Coster, Boston, Mass.). 2×10^5 Jurkat cells were suspended in 200 μl Optimizer T-Cell Expansion SFM, and the cell suspensions were added to the upper chamber. Then, 10 nM CXCL12 (R&D System) and/or various concentrations of the peptide of SEQ ID NO 16 or its derivatives in 600 μl T-Cell Expansion SFM were added to the lower chamber. The cell culture chambers were incubated for 150 min in a cell culture incubator at 37° C. After incubation, chambers were removed, 100 μl of supernatants were taken and cells that migrated into the lower compartment were either counted directly using a hemocytometer or analyzed using the CellTiter-Glo Luminescent Cell Viability Assay as described above. All values represent mean numbers of migrated cells relative to CXCL12 only treated cells from a triplicate experiment±SD.

[5] = tested on: CD34+ human stem cells; experiment: CXCL12-induced migration of CD34+ human stem cells; assay type: cell-based
Procedure: Peripheral hematopoietic stem (PHS) cells isolated by apheresis of Granulo-cyte colony-stimulating factor (G-CSF) treated individuals were obtained from the Institute of Transfusion Medicine, University Hospital Ulm). Frozen cells were carefully thawed in 1/10 diluted 10% ACD-A buffer (provided by the Institute of Transfusion Medicine) in PBS. 1×10^5/200 μl PHS cells were placed into the upper chamber of transwell plates. Then, 10 nM CXCL12 and/or various concentrations of the peptide of SEQ ID NO 16 or its derivatives in 600 μl culture medium were placed to each well. After 3 h, the chemotaxis was measured using the CellTiter-Glo Luminescent Cell Viability Assay as described above. All values represent mean numbers of migrated cells relative to CXCL12 only treated cells from a triplicate experiment±SD.

[6] = tested on: DU145 cells; experiment: Cancer cell invasion assay; assay type: cell-based
Procedure: Cell invasion of cancer cells was assayed using a Biocoat Matrigel invasion chamber (BD BioCoat™ Matrigel™ Invasion Chamber) as recommended by the manufacturer. 5×10^4 DU145 cells (ATCC) were suspended in 300 μl serum-free RPMI (Gibco) containing 0.1% BSA (KPL) and then added to the upper chamber. 700 μl serum-free medium with or without 100 nM CXCL12 and various concentrations of the peptide of SEQ ID NO 16 were added to each lower chamber. The chambers were incubated for 24 h at 37° C. in a humid atmosphere of 5% CO2/95% air. The non-invading cells were removed from the upper surface of the membrane by scrubbing. Invaded cells toward the bottom of membrane were quantified using the CellTiter-Glo® Luminescent Cell Viability Assay kit as described above.

[7] = Transplantation of mobilized cells; assay type: in vivo
Procedure: […] animals were injected with the peptide of SEQ ID NO 16 (2 mg i.p in saline) or controls saline. Peripheral blood was individually harvested 1 hour post injection, counted, combined and competitively transplanted (660 μl blood equivalent) alongside 4×10^5 C57BL/6 CD45.1 BM cells into C57BL/6 Cd45.1 recipients.

[8] = tested on: Staphylococus aureus; experiment: Antibacterial activity against Staphylococcus; assay type: cell-based
[9] = tested on: Candida albicans; experiment: Antifungal activity against Candida; assay type: cell-based
[10] = tested on: other GPCRs; experiment: GPCR antagonist screen; details: selectivity for CXCR4
Source text: GPCR Antagonist Screen of the Peptide of SEQ ID NO 16

LVRYTKKVPQVSTPTL [Derivative 408-423, LVRYTKKVPQVSTPTL]
Replication of wild-type HIV-1 NL4-3 in PBMCs [1]: markedly suppressed
cytotoxic effects [2]: did not display cytotoxic effects
infection by X4 HIV-2 strains [3]: inhibits infection
CXCL12-induced migration of Jurkat T cells [4]: suppressed
CXCL12-induced migration of CD34+ human stem cells [5]: suppressed
tumor cell invasion in vitro [6]: prevented
engraftment rates after transplantation of cells from treated mice [7]: increased engraftment rates
effects against Staphylococus aureus [8]: only modest effects
effects against Candida albicans [9]: only modest effects
activity of a large number of other GPCRs [10]: not affected
